Values quoted from earlier work, collected in patent US11833140B2, “Compositions and methods for treating, ameliorating and preventing H. pylori infections” (priority 2017, dated 2023).

Columns and labels:
H. pylori (HP) = settings: first line therapy, with amoxicillin and clarithromycin
[1] = after a single 20 mg ingestion
H^+/K^+—ATPAs = target: T1, H^+/K^+—ATPAs (Homo sapiens, UniProt P20648); settings: within 4 hours of its first administration in humans
T1 construct: increase intragastric pH to at least over pH 4.0 within 4 hours of its first administration in humans; host or cells: human stomach in vivo

CYP3A4 = CYP3A4 (Homo sapiens, UniProt P08684)
[2] = compared with conventional PPI's

Sequence of CYP3A4 (P08684 whole entry): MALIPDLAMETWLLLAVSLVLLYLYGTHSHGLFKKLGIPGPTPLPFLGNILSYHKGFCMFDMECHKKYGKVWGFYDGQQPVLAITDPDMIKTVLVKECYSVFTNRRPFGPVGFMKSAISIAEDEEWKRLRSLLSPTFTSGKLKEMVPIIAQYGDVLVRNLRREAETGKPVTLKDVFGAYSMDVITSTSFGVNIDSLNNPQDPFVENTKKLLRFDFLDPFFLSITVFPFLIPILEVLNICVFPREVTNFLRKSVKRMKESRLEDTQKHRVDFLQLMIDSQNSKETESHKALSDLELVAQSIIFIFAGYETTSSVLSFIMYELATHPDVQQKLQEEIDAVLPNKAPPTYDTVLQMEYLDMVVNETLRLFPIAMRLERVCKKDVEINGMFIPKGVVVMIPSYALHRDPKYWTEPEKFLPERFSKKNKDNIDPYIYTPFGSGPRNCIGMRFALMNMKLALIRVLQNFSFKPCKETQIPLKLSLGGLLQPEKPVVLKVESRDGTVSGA
T1 sequence (P20648 whole entry): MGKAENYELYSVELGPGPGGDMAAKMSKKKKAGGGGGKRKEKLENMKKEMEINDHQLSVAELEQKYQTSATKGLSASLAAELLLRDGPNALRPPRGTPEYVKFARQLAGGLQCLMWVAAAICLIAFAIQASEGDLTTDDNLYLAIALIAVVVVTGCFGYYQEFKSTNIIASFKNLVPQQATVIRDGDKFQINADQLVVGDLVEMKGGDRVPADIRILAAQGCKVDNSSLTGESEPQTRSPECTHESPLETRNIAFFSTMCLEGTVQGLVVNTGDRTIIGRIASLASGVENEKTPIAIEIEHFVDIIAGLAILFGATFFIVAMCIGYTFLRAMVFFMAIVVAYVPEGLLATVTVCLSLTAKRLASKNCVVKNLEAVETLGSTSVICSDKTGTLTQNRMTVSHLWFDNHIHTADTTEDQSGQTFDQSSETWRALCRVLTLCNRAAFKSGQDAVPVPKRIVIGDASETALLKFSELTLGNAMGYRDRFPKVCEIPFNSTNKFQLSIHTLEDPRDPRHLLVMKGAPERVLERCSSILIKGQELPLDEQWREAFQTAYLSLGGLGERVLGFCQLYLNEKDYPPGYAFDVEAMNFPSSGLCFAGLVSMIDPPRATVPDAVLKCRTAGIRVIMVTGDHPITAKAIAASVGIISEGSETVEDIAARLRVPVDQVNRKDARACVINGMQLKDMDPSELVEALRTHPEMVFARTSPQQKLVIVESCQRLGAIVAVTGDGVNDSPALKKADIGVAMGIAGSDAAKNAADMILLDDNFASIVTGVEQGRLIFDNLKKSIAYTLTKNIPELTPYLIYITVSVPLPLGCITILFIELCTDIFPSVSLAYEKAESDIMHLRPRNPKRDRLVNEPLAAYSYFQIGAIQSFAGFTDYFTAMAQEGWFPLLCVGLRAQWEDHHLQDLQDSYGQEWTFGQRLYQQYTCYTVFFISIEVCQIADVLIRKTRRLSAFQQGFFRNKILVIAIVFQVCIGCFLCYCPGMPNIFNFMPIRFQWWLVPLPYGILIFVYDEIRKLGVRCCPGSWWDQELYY
T1 sequence (P51164 whole entry partner): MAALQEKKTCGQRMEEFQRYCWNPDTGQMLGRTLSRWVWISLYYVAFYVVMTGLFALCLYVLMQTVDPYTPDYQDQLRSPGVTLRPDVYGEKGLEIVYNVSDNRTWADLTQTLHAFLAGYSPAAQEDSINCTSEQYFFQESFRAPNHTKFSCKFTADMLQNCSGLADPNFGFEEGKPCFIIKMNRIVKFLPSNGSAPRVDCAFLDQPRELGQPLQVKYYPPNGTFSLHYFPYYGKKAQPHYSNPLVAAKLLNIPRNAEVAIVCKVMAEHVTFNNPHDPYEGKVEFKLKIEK

## Cc1c(OCC(F)(F)F)ccnc1C[S+]([O-])c1nc2ccccc2[nH]1 (stereo not drawn) [lansoprazole]
H. pylori (HP)
  H. pylori (HP) eradication rate: 76%

## CNCc1cc(-c2ccccc2F)n(S(=O)(=O)c2cccnc2)c1.O=C(O)/C=C/C(=O)O [vonoprazan, 1-(5-(2-fluorophenyl)-1-(pyridin-3-ylsulfonyl)-1H-pyrrol-3-yl)-N-methylmethanamine fumarate]
[1]
  plasma half-life: 7 h
H^+/K^+—ATPAs
  intragastric pH: > 4.0 pH
CYP3A4
  metabolised by: by the CYP3A4 system
CYP2C19
  metabolised through the hepatic CYP2C19 haplotypes: not metabolised
[2]
  stability at neutral pH: more stable
